Experimental data published in patent US20070128217A1 (priority 2003, published 2007).

Tests used:
[1] = tested on: control sera (pooled serum of ten healthy LUMC hospital workers; commercial negative donor pooled serum from the Dutch bloodbank); type: binding, human; parameters: Binding of Control serum LUMC to linear peptides / Binding of Control serum Blood-bank to linear peptides / Binding of Control serum LUMC to looped peptides / Binding of Control Serum Blood-Bank to Looped peptides / Binding of Control serum LUMC to linear peptides of the protein M of SARS-CoV Urbani / Binding of Control serum Blood-bank to linear peptides of the protein M of SARS-CoV Urbani / Binding of Control serum LUMC to looped peptides of the protein M of SARS-CoV Urbani / Binding of Control Serum Blood-Bank to Looped peptides of the protein M of SARS-CoV Urbani: unit not given here
[2] = tested on: rabbit serum obtained by immunizing a rabbit with the SARS-CoV strain Frankfurt 1; type: binding; parameters: Binding of a rabbit serum to linear peptides / Binding of a rabbit serum to looped peptides / Rabbit serum linear peptides / Rabbit serum looped peptides / Binding of a rabbit serum to linear peptides of protein N of SARS-CoV Urbani (Rabbit serum linear peptides) / Binding of a rabbit serum to looped/cyclic peptides of protein N of SARS-CoV Urbani (Rabbit serum looped peptides): unit not given here
[3] = tested on: antibodies in sera from SARS patients (sera 1a, 1b, 2, 6, 37, 62, London, SARS-yellow, SARS-green); type: binding, human; parameters: Binding of serum 6 to linear peptides of protein X1 of SARS-CoV Urbani / Binding of serum 37 to linear peptides of protein X1 of SARS-CoV Urbani / Binding of serum 6 to looped/cyclic peptide (PEPSCAN-ELISA) / Binding of serum 37 to looped/cyclic peptide (PEPSCAN-ELISA) / Binding of serum 37 to looped/cyclic peptides of protein X1 of SARS-CoV Urbani / Binding of serum 6 to linear peptides of protein X2 / Binding of serum 37 to linear peptides of protein X2 / Binding of serum 37 to looped/cyclic peptides of protein X2 of SARS-CoV Urbani / Binding of serum 6 to linear peptides of protein M of SARS-CoV Urbani / Binding of serum 37 to linear peptides of protein M of SARS-CoV Urbani / Binding of serum 6 to looped/cyclic peptides of protein M of SARS-CoV Urbani / Binding of serum 37 to looped/cyclic peptides of protein M of SARS-CoV Urbani / Binding of serum 6 to linear peptides of protein X3 of SARS-CoV Urbani / Binding of serum 37 to linear peptides of protein X3 of SARS-CoV Urbani / Binding of serum 37 to looped/cyclic peptides of protein X3 of SARS-CoV Urbani / Binding of serum 6 to linear peptides of protein X4 of SARS-CoV Urbani / Binding of serum 37 to linear peptides of protein X4 of SARS-CoV Urbani / Binding of serum 37 to looped/cyclic peptides of protein X4 of SARS-CoV Urbani / Binding of serum 6 to linear peptides of protein X5 of SARS-CoV Urbani / Binding of serum 37 to linear peptides of protein X5 of SARS-CoV Urbani / Binding of serum 37 to looped/cyclic peptides of protein X5 of SARS-CoV Urbani / Binding of serum 6 to linear peptides of protein N of SARS-CoV Urbani / Binding of serum 37 to linear peptides of protein N of SARS-CoV Urbani / Binding of serum 6 to linear peptide (PEPSCAN-ELISA) / Binding of serum 1a to looped/cyclic peptides of protein N of SARS-CoV Urbani / Binding of serum 1b to looped/cyclic peptides of protein N of SARS-CoV Urbani / Binding of serum 2 to looped/cyclic peptides of protein N of SARS-CoV Urbani / Binding of serum 6 to looped/cyclic peptides of protein N of SARS-CoV Urbani / Binding of serum 37 to looped/cyclic peptides of protein N of SARS-CoV Urbani / Binding of serum 62 to looped/cyclic peptides of protein N of SARS-CoV Urbani / Binding of serum London to looped/cyclic peptides of protein N of SARS-CoV Urbani / Binding of serum SARS-green to looped/cyclic peptides of protein N of SARS-CoV Urbani: unit not given here
[4] = tested on: recombinant human anti-SARS-CoV antibody 03-018; type: binding; parameters: Binding of antibody 03-018 to linear peptides of the N protein of SARS-CoV Urbani / Binding of antibody 03-018 to looped/cyclic peptides of the N protein of SARS-CoV Urbani: unit not given here

Sequence	Binding of Control Serum Blood-Bank to Looped peptides [1]	Binding of Control serum Blood-bank to linear peptides [1]	Binding of Control serum LUMC to linear peptides [1]	Binding of Control serum LUMC to looped peptides [1]	Binding of a rabbit serum to linear peptides of protein N of SARS-CoV Urbani (Rabbit serum linear peptides) [2]	Binding of a rabbit serum to looped/cyclic peptides of protein N of SARS-CoV Urbani (Rabbit serum looped peptides) [2]	Binding of antibody 03-018 to linear peptides of the N protein of SARS-CoV Urbani [4]	Binding of antibody 03-018 to looped/cyclic peptides of the N protein of SARS-CoV Urbani [4]	other results
NGGRNGARPKQRRPQ	0.7	0.6	0.6	0.7	0.1	1.1	0.2	0.3	Binding of serum 1a to linear peptides of protein N of SARS-CoV Urbani [3]: 0.2; Binding of serum 1a to looped/cyclic peptides of protein N of SARS-CoV Urbani [3]: 0.3; Binding of serum 1b to linear peptides of protein N of SARS-CoV Urbani [3]: 0.1; Binding of serum 1b to looped/cyclic peptides of protein N of SARS-CoV Urbani [3]: 0.2; Binding of serum 2 to linear peptides of protein N of SARS-CoV Urbani [3]: 0.2; Binding of serum 2 to looped/cyclic peptides of protein N of SARS-CoV Urbani [3]: 0.3; Binding of serum 6 to linear peptides of protein N of SARS-CoV Urbani [3]: 0.2; Binding of serum 6 to looped/cyclic peptides of protein N of SARS-CoV Urbani [3]: 0.3; Binding of serum 37 to linear peptides of protein N of SARS-CoV Urbani [3]: 0.7; Binding of serum 37 to looped/cyclic peptides of protein N of SARS-CoV Urbani [3]: 0.6; Binding of serum 62 to linear peptides of protein N of SARS-CoV Urbani [3]: 0.7; Binding of serum 62 to looped/cyclic peptides of protein N of SARS-CoV Urbani [3]: 0.5; Binding of serum London to linear peptides of protein N of SARS-CoV Urbani [3]: 0.5; Binding of serum London to looped/cyclic peptides of protein N of SARS-CoV Urbani [3]: 0.3; Binding of serum SARS-green to linear peptides of protein N of SARS-CoV Urbani [3]: 0.5; Binding of serum SARS-green to looped/cyclic peptides of protein N of SARS-CoV Urbani [3]: 0.4; Binding of serum SARS-yellow to linear peptides of protein N of SARS-CoV Urbani [3]: 0.5; Binding of serum SARS-yellow to looped/cyclic peptides of protein N of SARS-CoV Urbani [3]: 0.5
PEASLPYGANKEGIV	0.5	0.9	0.7	0.6	0.1	0.2	0.1	0.2	Binding of serum 1a to linear peptides of protein N of SARS-CoV Urbani [3]: 0.3; Binding of serum 1a to looped/cyclic peptides of protein N of SARS-CoV Urbani [3]: 0.3; Binding of serum 1b to linear peptides of protein N of SARS-CoV Urbani [3]: 0.1; Binding of serum 1b to looped/cyclic peptides of protein N of SARS-CoV Urbani [3]: 0.2; Binding of serum 2 to linear peptides of protein N of SARS-CoV Urbani [3]: 0.2; Binding of serum 2 to looped/cyclic peptides of protein N of SARS-CoV Urbani [3]: 0.4; Binding of serum 6 to linear peptides of protein N of SARS-CoV Urbani [3]: 0.2; Binding of serum 6 to looped/cyclic peptides of protein N of SARS-CoV Urbani [3]: 0.2; Binding of serum 37 to linear peptides of protein N of SARS-CoV Urbani [3]: 0.7; Binding of serum 37 to looped/cyclic peptides of protein N of SARS-CoV Urbani [3]: 0.4; Binding of serum 62 to linear peptides of protein N of SARS-CoV Urbani [3]: 0.7; Binding of serum 62 to looped/cyclic peptides of protein N of SARS-CoV Urbani [3]: 0.3; Binding of serum London to linear peptides of protein N of SARS-CoV Urbani [3]: 0.5; Binding of serum London to looped/cyclic peptides of protein N of SARS-CoV Urbani [3]: 0.3; Binding of serum SARS-green to linear peptides of protein N of SARS-CoV Urbani [3]: 0.3; Binding of serum SARS-green to looped/cyclic peptides of protein N of SARS-CoV Urbani [3]: 0.3; Binding of serum SARS-yellow to linear peptides of protein N of SARS-CoV Urbani [3]: 0.6; Binding of serum SARS-yellow to looped/cyclic peptides of protein N of SARS-CoV Urbani [3]: 0.2
TATKQYNVTQAFGRR	0.9	0.8	0.8	1.0	–	–	0.1	0.3	Recognition of the peptide by the rabbit serum [2]: recognized
ASGGGETALALLLLD	1.3	0.8	0.9	1.3	0.1	0.4	0.1	0.2	–
RMASGGGETALALLL	0.8	0.6	0.5	0.8	0.2	0.4	0.1	0.3	–
MASGGGETALALLLL	0.7	0.7	0.6	0.9	0.2	1.1	0.1	0.3	–
GTTLPKGFYAEGSRG	0.5	0.6	0.6	0.6	0.2	0.3	0.1	0.2	–
LQLPQGTTLPKGFYA	0.5	1.0	0.8	0.5	0.2	1.0	0.1	0.2	–
KPRQKRTATKQYNVT	0.4	0.8	0.7	0.4	0.3	0.0	0.1	0.2	–
